{"source": "patent US7951921B2", "about": "“Multivalent carriers of bi-specific antibodies” (Immunomedics, Inc., priority 2003, dated 2011)", "key": {"[1]": {"test": "Stability of IMP 246 and its complex in fresh mouse serum, size exclusion HPLC", "assay_type": "in vitro ADME", "conditions": "37° C.", "experimental": "[…] A 10 μL aliquot was removed and mixed with 5 μL of 3.2 mg/mL 14IgG^(I253A)-(734scFv)2 and diluted with 40 μL water. A 10 μL aliquot of the diluted mixture was then examined by size exclusion HPLC.\nA 4 μL aliquot of the labeled peptide solution was mixed with 10 μL of the 3.2 mg/mL hMN-14 IgG^(I253A)-(734scFv)2 and diluted in 400 μL of fresh mouse serum. The serum sample was incubated at 37° C. for 16 hr and then analyzed by size exclusion HPLC.\nThree broad peaks comprised about 20%, 41% and 37% of the area under the curve of the HPLC tracing."}, "Raji cells": {"system": "Raji cells", "test": "Apoptosis of Raji cells after cross-linking of bound hA20IgG-(734scFv)2", "assay_type": "cell-based", "conditions": "Raji cells incubated with hA20IgG-(734scFv)2, 3 days, 37 degrees C.", "experimental": "Raji cells in culture are incubated with hA20IgG-(734scFv)2. To one set of wells is added IMP-246 to cross-link molecules of hA20IgG-(734scFv)2 bound to CD20 on the surface of the Raji cells. A second set of wells to which IMP-246 is not added serve as controls, and both sets of wells incubated at 37 degrees C.\nAn average of 5 molecules IMP-222 are conjugated to human serum albumin (hAlb-222). The experiment described in the paragraph above is repeated, but hAb-222 is used to cross-link molecules of hA20IgG-(734scFv)2 bound to CD20 on the surface of the Raji cells, in place of IMP-246."}, "hMN-14IgG-(734scFv)2": {"system": "hMN-14IgG-(734scFv)2", "test": "Stoichiometry of targetable complexes, In-111 IMP 246 mixed with bsAb, size exclusion HPLC", "assay_type": "binding", "conditions": "1:10 (IMP 246:bsAb) mole ratio; peak at 7.5 min", "experimental": "(§1) This Example describes experiments designed to determine the stoichiometry of different species of targetable complexes that arise when the targetable divalent construct IMP 246 is mixed with bsAbs hMN-14IgG^(I253A)-(734scFv)2, and hMN-14IgG-(734scFv)2.\n(§2) The peptide IMP 246 was dissolved in 100 mL of a solution which contained 0.418 g citric acid and 10.06 g of HPCD buffered at pH 4.3. The solution was filter sterilized through a 0.22 ? m Millex GV filters in 1 mL aliquots into vials that were immediately frozen and lyophilized.\n(§3) The IMP 246 was labeled with In-111 as follows. The In-111 was diluted with 0.5 mL water and added to a lyophilized IMP 246 kit. The solution was allowed to incubate at room temperature for 10 min. A 1.5 mL aliquot of a solution containing […] in 0.5 M NaOAc buffer pH 7.17 was then added to the kit.\n(§4) The In-111-labelled IMP 246 was mixed with bsAb in a 1:10 (IMP 246:bsAb) mole ratio and then examined by size exclusion HPLC. When mixed with the mutant bsAb, i.e., hMN-14IgG^(I253A)-(734scFv)2, about 90% of the In-111 label was found at a clean sharp peak at 8.5 min (FIG. 8A). When mixed with hMN-14IgG-(734scFv)2, the peak was somewhat broader, comprised about 83% of the In-111 label and was found at 7.5 min (FIG. 8B). In contrast, the antibody:peptide complexes formed when IMP 192 was used were found at 9.5 min (FIG. 7)."}, "[2]": {"system": "hMN-14IgG^(I253A)-(734scFv)2", "test": "Stoichiometry of targetable complexes, In-111 IMP 246 mixed with bsAb, size exclusion HPLC", "assay_type": "binding", "conditions": "1:10 (IMP 246:bsAb) mole ratio; peak at 8.5 min", "experimental": "as §1, §2, §3, §4"}}, "note": "Primed or numbered codes have the meaning given here. DTPA′ = diethylenetriaminepentaacetic acid", "data": [{"substance": "[Ac-Cys-Lys(DTPA)-Tyr-Lys(DTPA)-NH2]2 (Ac-CK(DTPA′)YK(DTPA′)-NH2; also: disulfide-linked homodimer of two chains, disulfide at 1, other end not in the chain) [IMP 246]", "values": [{"measurement": "area under the curve of HPLC tracing in distinct peak at predicted position", "setting": "[1]; in presence of bi-specific antibody, mouse serum, 16 hr", "value": "≥ 90", "unit": "%"}, {"measurement": "stability in mouse serum", "setting": "[1]; peptide alone, 16 hours", "value": "unstable"}, {"measurement": "apoptosis", "setting": "Raji cells", "value": "extensive apoptosis"}, {"measurement": "In-111 label found in complex peak", "setting": "hMN-14IgG-(734scFv)2", "value": "about 83%"}, {"measurement": "In-111 label found in complex peak", "setting": "[2]", "value": "about 90%"}]}]}
